Measured values from patent publication US20090088432A1, “Thiazolinones and Oxazolinones and their Use as Ptp1b Inhibitors” (priority 2005, published 2009).

Target: T1, Recombinant human Protein-tyrosine phosphatase1B (PTP1B) (Homo sapiens, UniProt P18031)
T1 construct: Recombinant human Protein-tyrosine phosphatase1B (PTP1B) (amino acid 1-322 Biomol, USA); purchased Biomol, USA
T1 sequence (P18031 1-322): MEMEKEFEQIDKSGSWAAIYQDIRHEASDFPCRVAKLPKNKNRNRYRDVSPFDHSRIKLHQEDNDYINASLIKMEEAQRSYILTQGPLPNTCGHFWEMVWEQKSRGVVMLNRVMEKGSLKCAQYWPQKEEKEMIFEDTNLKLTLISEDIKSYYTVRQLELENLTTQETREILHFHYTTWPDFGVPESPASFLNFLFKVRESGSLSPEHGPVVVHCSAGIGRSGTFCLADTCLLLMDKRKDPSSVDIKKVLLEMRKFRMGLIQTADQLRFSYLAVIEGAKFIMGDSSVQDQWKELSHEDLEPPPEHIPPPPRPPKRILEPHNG
Assay: PTP1B enzyme inhibition assay (pNpp substrate)
Type: biochemical
Details: inhibition of recombinant human PTP1B, pNpp 5 mM, 30 mins at 25° C; inhibitor concentration not given
Experimental: Protein tyrosine phosphatase 1B (PTP1B) is an intracellular enzyme which functions by removing the phosphate groups from phosphorylated tyrosine residues of cellular proteins. PTP1B has been implicated as a negative regulator of insulin action and therefore is of therapeutic interest. The ability of the test compounds to inhibit the activity of PTP1B is determined using an enzyme inhibition assay.
The assay is performed using two independent substrates of PTP1B namely, p-nitrophenyl phosphate (pNpp) and the phosphorylated Epidermal growth factor receptor peptide (EGFR).
In the assay performed with pNpp, the action of PTP1B results in the release of p-nitrophenol, which is yellow in colour and can be measured at 410 nm. In the case of the assay using EGFR, action of PTP1B results in the release of free phosphate group. This is trapped using a reagent containing ammonium molybdate and malachite green resulting in a colored complex whose absorbance can be measured at 620 nm.
1× Assay buffer 50 mM HEPES (pH 7.4) • 1 mM EDTA • 1 mM DTT • 0.05% Igepal® CA-630
Dilute recombinant Human PTP1B 1:150 in 1× Assay buffer for 10× stock,
Prepare 10× stock of pNpp (50 mM) in 1× Assay buffer
Prepare 100× stock in 100% DMSO, dilute 1:10 with 1× Assay buffer to get 10× stock in 10% DMSO.
PTP1B inhibition assay was performed using recombinant human PTP1B. PTP1B (0.016 μg/well) was incubated in a buffer containing 50 mM HEPES, 1 mM DTT, 1 mM EDTA and 0.05% Igepal® CA-630 with or without inhibitor (10× stock, final DMSO concentration is 1%) for 30 mins at 25° C. This was followed by addition of p-Nitrophenyl phosphate (pNpp) substrate (5 mM). The final volume of the reaction mixture is 50 μL and experiment was done in 96 well half area plate. The incubation was continued for 30 mins at 25° C. The conversion of pNpp to p-Nitrophenol (pNp) was measured at 410 nm in Spectramaxplus Spectrophotometer (Molecular Devices, USA).

Compound	Activity Score
4-[5-(6-Ethoxy-naphthalen-2-ylmethylene)-4-oxo-4,5-dihydro-thiazol-2-ylamino]-phenyl}-sodium acetate [Compound 143]	(+++) (+++ = >50% inhibition)
O=C(O)Cc1ccc(NC2=NC(=O)C(=Cc3ccc4ccccc4c3)S2)cc1 [Compound 1, [4-(5-Naphthalen-2-ylmethylene-4-oxo-4,5-dihydro-thiazol-2-ylamino)-phenyl]-acetic acid]	(+++) (+++ = >50% inhibition)
O=C(O)Cc1ccc(NC2=NC(=O)C(=Cc3cn(CC(=O)O)c4ccccc34)S2)cc1 [Compound 2, {4-[5-(1-Carboxymethyl-1H-indol-3-ylmethylene)-4-oxo-4,5-dihydro-thiazol-2-ylamino]-phenyl}-acetic acid]	(+++) (+++ = >50% inhibition)
O=C(O)Cc1ccc(NC2=NC(=O)C(=Cc3cc4ccccc4cc3OCc3ccccc3)S2)cc1 [Compound 3, {4-[5-(3-Benzyloxy-naphthalen-2-ylmethylene)-4-oxo-4,5-dihydro-thiazol-2-ylamino]-phenyl}-acetic acid]	(+++) (+++ = >50% inhibition)
O=C(O)Cc1ccc(NC2=NC(=O)C(=Cc3ccccc3)S2)cc1 [Compound 5, [4-(5-Benzylidene-4-oxo-4,5-dihydro-thiazol-2-ylamino)-phenyl]-acetic acid]	(+) (+ = 10-20% inhibition)
COc1ccc2cc(C=C3SC(Nc4ccc(CC(=O)O)cc4)=NC3=O)ccc2c1 [Compound 7, {4-[5-(6-Methoxy-naphthalen-2-ylmethylene)-4-oxo-4,5-dihydro-thiazol-2-ylamino]-phenyl}-acetic acid]	(+++) (+++ = >50% inhibition)
O=C(O)Cc1ccc(NC2=NC(=O)C(=Cc3c[nH]c4ccccc34)S2)cc1 [Compound 8, {4-[5-(1H-Indol-3-ylmethylene)-4-oxo-4,5-dihydro-thiazol-2-ylamino]-phenyl}-acetic acid]	(+) (+ = 10-20% inhibition)
O=C(O)Cc1ccc(NC2=NC(=O)C(=Cc3ccc(-c4ccccc4)cc3)S2)cc1 [Compound 9, [4-(5-Biphenyl-4-ylmethylene-4-oxo-4,5-dihydro-thiazol-2-ylamino)-phenyl]-acetic acid]	(+++) (+++ = >50% inhibition)
CC(C)Oc1cc2ccccc2cc1C=C1SC(Nc2ccc(CC(=O)O)cc2)=NC1=O [Compound 10, {4-[5-(3-Isopropoxy-naphthalen-2-ylmethylene)-4-oxo-4,5-dihydro-thiazol-2-ylamino]-phenyl}-acetic acid]	(++) (++ = 20-50% inhibition)
CC(C)(C)OC(=O)Cn1cc(C=C2SC(Nc3ccc(CC(=O)O)cc3)=NC2=O)c2ccccc21 [Compound 11, {4-[5-(1-tert-Butoxycarbonylmethyl-1H-indol-3-ylmethylene)-4-oxo-4,5-dihydro-thiazol-2-ylamino]-phenyl}-acetic acid]	(++) (++ = 20-50% inhibition)
CC(=C1SC(Nc2ccc(CC(=O)O)cc2)=NC1=O)c1cc2ccccc2o1 [Compound 13, {4-[5-(1-Benzofuran-2-yl-ethylidene)-4-oxo-4,5-dihydro-thiazol-2-ylamino]-phenyl}-acetic acid]	(++) (++ = 20-50% inhibition)
O=C(O)Cc1cccc(NC2=NC(=O)C(=Cc3cc4ccccc4cc3OCc3ccccc3)S2)c1 [Compound 14, {3-[5-(3-Benzyloxy-naphthalen-2-ylmethylene)-4-oxo-4,5-dihydro-thiazol-2-ylamino]-phenyl}-acetic acid]	(++) (++ = 20-50% inhibition)
O=C(O)Cc1cccc(NC2=NC(=O)C(=Cc3ccc4ccccc4c3)S2)c1 [Compound 16, [3-(5-Naphthalen-2-ylmethylene-4-oxo-4,5-dihydro-thiazol-2-ylamino)-phenyl]-acetic acid]	(+) (+ = 10-20% inhibition)
N#Cc1ccccc1-c1ccc(C=C2SC(Nc3ccc(CC(=O)O)cc3)=NC2=O)cc1 [Compound 17, {4-[5-(2′-Cyano-biphenyl-4-ylmethylene)-4-oxo-4,5-dihydro-thiazol-2-ylamino]-phenyl}-acetic acid]	(++) (++ = 20-50% inhibition)
O=C(O)Cc1ccc(NC2=NC(=O)C(=Cc3ccc(-n4cccc4)cc3)S2)cc1 [Compound 18, {4-[4-Oxo-5-(4-pyrrol-1-yl-benzylidene)-4,5-dihydro-thiazol-2-ylamino]-phenyl}-acetic acid]	(+++) (+++ = >50% inhibition)

Continued, values first:

Activity Score	Compound
(+++) (+++ = >50% inhibition)	O=C(O)Cc1ccc(NC2=NC(=O)C(=Cc3ccc(-c4nnn[nH]4)cc3)S2)cc1 [Compound 19, (4-{4-Oxo-5-[4-(1H-tetrazol-5-yl)-benzylidene]-4,5-dihydro-thiazol-2-ylamino}-phenyl)-acetic acid]
(+++) (+++ = >50% inhibition)	CC(C)Oc1cc2ccccc2cc1C=C1SC(Nc2cccc(CC(=O)O)c2)=NC1=O [Compound 21, {3-[5-(3-Isopropoxy-naphthalen-2-ylmethylene)-4-oxo-4,5-dihydro-thiazol-2-ylamino]-phenyl}-acetic acid]
(+) (+ = 10-20% inhibition)	Cc1ccc(S(=O)(=O)NC(=O)Cc2ccc(NC3=NC(=O)C(=Cc4cc5ccccc5cc4OCc4ccccc4)S3)cc2)cc1 [Compound 26, N-(2-{4-[5-(3-Benzyloxy-naphthalen-2-ylmethylene)-4-oxo-4,5-dihydro-thiazol-2-ylamino]-phenyl}-acetyl)-4-methyl-benzenesulfonamide]
(+++) (+++ = >50% inhibition)	O=C(O)Cc1ccc(NC2=NC(=O)C(=Cc3cc4ccccc4cc3O)S2)cc1 [Compound 32, {4-[5-(3-Hydroxy-naphthalen-2-ylmethylene)-4-oxo-4,5-dihydro-thiazol-2-ylamino]-phenyl}-acetic acid]
(+) (+ = 10-20% inhibition)	O=C1N=C(Nc2ccc(Cc3nnn[nH]3)cc2)SC1=Cc1cc2ccccc2cc1OCc1ccccc1 [Compound 33, 5-(3-Benzyloxy-naphthalen-2-ylmethylene)-2-[4-(1H-tetrazol-5-ylmethyl)-phenylamino]-thiazol-4-one]
(+) (+ = 10-20% inhibition)	O=C(O)Cc1ccc(NC2=NC(=O)C(=Cc3ccc(C(=O)N4CCOCC4)cc3)S2)cc1 [Compound 36, (4-{5-[4-(Morpholine-4-carbonyl)-benzylidene]-4-oxo-4,5-dihydro-thiazol-2-ylamino}-phenyl)-acetic acid]
(+++) (+++ = >50% inhibition)	CC(C)(C)c1cc(C=C2SC(Nc3ccc(CC(=O)O)cc3)=NC2=O)cc(C(C)(C)C)c1O [Compound 37, {4-[5-(3,5-Di-tert-butyl-4-hydroxy-benzylidene)-4-oxo-4,5-dihydro-thiazol-2-ylamino]-phenyl}-acetic acid]
(+++) (+++ = >50% inhibition)	O=C(O)CCc1ccc(NC2=NC(=O)C(=Cc3cn(CC(=O)O)c4ccccc34)S2)cc1 [Compound 43, 3-{4-[5-(1-Carboxymethyl-1H-indo-3-ylmethylene)-4-oxo-4,5-dihydro-thiazol-2-ylamino]-phenyl}-propionic acid]
(+) (+ = 10-20% inhibition)	CNS(=O)(=O)Cc1ccc(NC2=NC(=O)C(=Cc3cn(CC(=O)O)c4ccccc34)S2)cc1 [Compound 44, {3-[2-(4-Methylsulfamoylmethyl-phenylamino)-4-oxo-4H-thiazol-5-ylidenemethyl]-indol-1-yl}-acetic acid]
(+++) (+++ = >50% inhibition)	O=C(O)Cc1ccc(NC2=NC(=O)C(=Cc3ccc(-n4cnnn4)cc3)S2)cc1 [Compound 45, {4-[4-Oxo-5-(4-tetrazol-1-yl-benzylidene)-4,5-dihydro-thiazol-2-ylamino]-phenyl}-acetic acid]
(+++) (+++ = >50% inhibition)	O=C(O)Cn1ccc2cc(NC3=NC(=O)C(=Cc4cc5ccccc5cc4OCc4ccccc4)S3)ccc21 [Compound 47, {5-[5-(3-Benzyloxy-naphthalen-2-ylmethylene)-4-oxo-4,5-dihydro-thiazol-2-ylamino]-indol-1-yl}-acetic acid]
(+++) (+++ = >50% inhibition)	CCC(C(=O)O)c1ccc(NC2=NC(=O)C(=Cc3cc4ccccc4cc3OCc3ccccc3)S2)cc1 (stereo not drawn) [Compound 48, 2-{4-[5-(3-Benzyloxy-naphthalen-2-ylmethylene)-4-oxo-4,5-dihydro-thiazol-2-ylamino]-phenyl}-butyric acid]
